Results: the supplement of paper PMC10307832

How the values were obtained:
Test in all cases: relative viability (nuclei count vs DMSO), 5 days (fraction); higher = more cells survive
COR-L 105 = system: COR-L 105
Summary of the method: (§1)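 Lung cancer cell lines were seeded in 1536-well plates and dosed by pin tool the next day, with either a single drug or a fixed anchor-drug dose combined with five library-drug doses (not always all listed) spaced in √10 steps. Five days later, one step fixed the cells and stained their nuclei (final 0.05% Triton X-100, 1% formaldehyde, 1 ug/ml Hoechst), and nuclei were counted on 4× images. Relative viability is the nuclei count in treated wells divided by the count in vehicle wells, and each value is the median of duplicate plates.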

COR-L23 = system: COR-L23
Summary of the method: as §1

HARA = system: HARA
Summary of the method: as §1

HCC-15 = system: HCC-15
Summary of the method: as §1

HOP-62 = system: HOP-62
Summary of the method: as §1

NCI-H1355 = system: NCI-H1355
Summary of the method: as §1

NCI-H1734 = system: NCI-H1734
Summary of the method: as §1

NCI-H1755 = system: NCI-H1755
Summary of the method: as §1

NCI-H1792 = system: NCI-H1792
Summary of the method: as §1

NCI-H1993 = system: NCI-H1993
Summary of the method: as §1

NCI-H2009 = system: NCI-H2009
Summary of the method: as §1

NCI-H2228 = system: NCI-H2228
Summary of the method: as §1

NCI-H2347 = system: NCI-H2347
Summary of the method: as §1

NCI-H647 = system: NCI-H647
Summary of the method: as §1

NCI-H838 = system: NCI-H838
Summary of the method: as §1

UMC-11 = system: UMC-11
Summary of the method: as §1

Compound: Cc1sc2c(c1C)C(c1ccc(Cl)cc1)=N[C@@H](CC(=O)OC(C)(C)C)c1nnc(C)n1-2 [JQ1] + CC(C)C[C@H](NC(=O)[C@H](Cc1ccccc1)NC(=O)c1cnccn1)B(O)O [Bortezomib] (partner 0.002 µM)
- relative viability (COR-L 105; first compound 0.04 µM): 0.584
- relative viability (COR-L 105; first compound 0.1265 µM): 0.348
- relative viability (COR-L 105; first compound 0.4 µM): 0.3
- relative viability (COR-L 105; first compound 1.265 µM): 0.292
- relative viability (COR-L 105; first compound 4 µM): 0.342
- relative viability (COR-L23; first compound 0.04 µM): 0.981
- relative viability (COR-L23; first compound 0.1265 µM): 0.673
- relative viability (COR-L23; first compound 0.4 µM): 0.792
- relative viability (COR-L23; first compound 1.265 µM): 0.579
- relative viability (COR-L23; first compound 4 µM): 0.17
- relative viability (HARA; first compound 0.04 µM): 1.08
- relative viability (HARA; first compound 0.1265 µM): 0.725
- relative viability (HARA; first compound 0.4 µM): 0.611
- relative viability (HARA; first compound 1.265 µM): 0.433
- relative viability (HARA; first compound 4 µM): 0.173
- relative viability (HCC-15; first compound 0.04 µM): 0.958
- relative viability (HCC-15; first compound 0.4 µM): 0.98
- relative viability (HCC-15; first compound 1.265 µM): 0.705
- relative viability (HCC-15; first compound 4 µM): 0.628
- relative viability (HOP-62; first compound 0.04 µM): 0.447
- relative viability (HOP-62; first compound 0.1265 µM): 0.641
- relative viability (HOP-62; first compound 0.4 µM): 0.515
- relative viability (HOP-62; first compound 1.265 µM): 0.11
- relative viability (HOP-62; first compound 4 µM): 0.111
- relative viability (NCI-H1355; first compound 0.04 µM): 1.17
- relative viability (NCI-H1355; first compound 0.1265 µM): 1.07
- relative viability (NCI-H1355; first compound 0.4 µM): 1.05
- relative viability (NCI-H1355; first compound 1.265 µM): 0.86
- relative viability (NCI-H1355; first compound 4 µM): 0.669
- relative viability (NCI-H1734; first compound 0.04 µM): 0.967
- relative viability (NCI-H1734; first compound 0.1265 µM): 0.788
- relative viability (NCI-H1734; first compound 0.4 µM): 0.878
- relative viability (NCI-H1734; first compound 1.265 µM): 0.597
- relative viability (NCI-H1734; first compound 4 µM): 0.474
- relative viability (NCI-H1755; first compound 0.04 µM): 0.923
- relative viability (NCI-H1755; first compound 0.1265 µM): 0.807
- relative viability (NCI-H1755; first compound 0.4 µM): 0.995
- relative viability (NCI-H1755; first compound 1.265 µM): 0.618
- relative viability (NCI-H1755; first compound 4 µM): 0.44
- relative viability (NCI-H1792; first compound 0.04 µM): 0.953
- relative viability (NCI-H1792; first compound 0.4 µM): 0.895
- relative viability (NCI-H1792; first compound 1.265 µM): 0.657
- relative viability (NCI-H1792; first compound 4 µM): 0.456
- relative viability (NCI-H1993; first compound 0.04 µM): 1.08
- relative viability (NCI-H1993; first compound 0.1265 µM): 1.13
- relative viability (NCI-H1993; first compound 0.4 µM): 1.04
- relative viability (NCI-H1993; first compound 1.265 µM): 0.738
- relative viability (NCI-H1993; first compound 4 µM): 0.458
- relative viability (NCI-H2009; first compound 0.04 µM): 0.947
- relative viability (NCI-H2009; first compound 0.1265 µM): 0.526
- relative viability (NCI-H2009; first compound 0.4 µM): 0.262
- relative viability (NCI-H2009; first compound 1.265 µM): 0.172
- relative viability (NCI-H2009; first compound 4 µM): 0.197
- relative viability (NCI-H2228; first compound 0.04 µM): 0.764
- relative viability (NCI-H2228; first compound 0.1265 µM): 0.918
- relative viability (NCI-H2228; first compound 0.4 µM): 0.609
- relative viability (NCI-H2228; first compound 1.265 µM): 0.245
- relative viability (NCI-H2228; first compound 4 µM): 0.185
- relative viability (NCI-H2347; first compound 0.04 µM): 1.13
- relative viability (NCI-H2347; first compound 0.1265 µM): 0.934
- relative viability (NCI-H2347; first compound 0.4 µM): 0.841
- relative viability (NCI-H2347; first compound 1.265 µM): 0.564
- relative viability (NCI-H2347; first compound 4 µM): 0.404
- relative viability (NCI-H647; first compound 0.04 µM): 0.678
- relative viability (NCI-H647; first compound 0.1265 µM): 0.521
- relative viability (NCI-H647; first compound 0.4 µM): 0.346
- relative viability (NCI-H647; first compound 1.265 µM): 0.0716
- relative viability (NCI-H647; first compound 4 µM): 0.102
- relative viability (NCI-H838; first compound 0.04 µM): 0.69
- relative viability (NCI-H838; first compound 0.1265 µM): 0.426
- relative viability (NCI-H838; first compound 0.4 µM): 0.31
- relative viability (NCI-H838; first compound 1.265 µM): 0.208
- relative viability (NCI-H838; first compound 4 µM): 0.154
- relative viability (UMC-11; first compound 0.04 µM): 0.708
- relative viability (UMC-11; first compound 0.1265 µM): 0.522
- relative viability (UMC-11; first compound 0.4 µM): 0.367
- relative viability (UMC-11; first compound 1.265 µM): 0.216
- relative viability (UMC-11; first compound 4 µM): 0.136

Compound: COc1cc2nccc(Oc3ccc(NC(=O)Nc4cc(C)on4)c(Cl)c3)c2cc1OC [Tivozanib] + CC(C)C[C@H](NC(=O)[C@H](Cc1ccccc1)NC(=O)c1cnccn1)B(O)O [Bortezomib] (partner 0.002 µM)
- relative viability (COR-L 105; first compound 0.01581 µM): 0.751
- relative viability (COR-L 105; first compound 0.05 µM): 0.759
- relative viability (COR-L 105; first compound 0.1581 µM): 0.702
- relative viability (COR-L 105; first compound 0.5 µM): 0.681
- relative viability (COR-L23; first compound 0.005 µM): 0.88
- relative viability (COR-L23; first compound 0.01581 µM): 0.931
- relative viability (COR-L23; first compound 0.05 µM): 1.13
- relative viability (COR-L23; first compound 0.1581 µM): 1.01
- relative viability (COR-L23; first compound 0.5 µM): 0.869
- relative viability (HARA; first compound 0.005 µM): 1.03
- relative viability (HARA; first compound 0.01581 µM): 1.18
- relative viability (HARA; first compound 0.05 µM): 1.08
- relative viability (HARA; first compound 0.1581 µM): 1.27
- relative viability (HARA; first compound 0.5 µM): 1.14
- relative viability (HCC-15; first compound 0.005 µM): 0.98
- relative viability (HCC-15; first compound 0.01581 µM): 1.04
- relative viability (HCC-15; first compound 0.05 µM): 1.08
- relative viability (HCC-15; first compound 0.1581 µM): 1.04
- relative viability (HCC-15; first compound 0.5 µM): 1.03
- relative viability (HOP-62; first compound 0.005 µM): 0.708
- relative viability (HOP-62; first compound 0.01581 µM): 0.659
- relative viability (HOP-62; first compound 0.05 µM): 0.548
- relative viability (HOP-62; first compound 0.1581 µM): 0.565
- relative viability (HOP-62; first compound 0.5 µM): 0.819
- relative viability (NCI-H1355; first compound 0.005 µM): 1.09
- relative viability (NCI-H1355; first compound 0.01581 µM): 1.17
- relative viability (NCI-H1355; first compound 0.05 µM): 1.26
- relative viability (NCI-H1355; first compound 0.5 µM): 1.14
- relative viability (NCI-H1734; first compound 0.005 µM): 0.757
- relative viability (NCI-H1734; first compound 0.01581 µM): 0.904
- relative viability (NCI-H1734; first compound 0.05 µM): 1.01
- relative viability (NCI-H1734; first compound 0.1581 µM): 0.677
- relative viability (NCI-H1734; first compound 0.5 µM): 0.854
- relative viability (NCI-H1755; first compound 0.005 µM): 0.911
- relative viability (NCI-H1755; first compound 0.01581 µM): 0.935
- relative viability (NCI-H1755; first compound 0.05 µM): 1.01
- relative viability (NCI-H1755; first compound 0.1581 µM): 0.577
- relative viability (NCI-H1755; first compound 0.5 µM): 0.86
- relative viability (NCI-H1792; first compound 0.005 µM): 0.961
- relative viability (NCI-H1792; first compound 0.01581 µM): 0.967
- relative viability (NCI-H1792; first compound 0.05 µM): 0.965
- relative viability (NCI-H1792; first compound 0.1581 µM): 0.989
- relative viability (NCI-H1792; first compound 0.5 µM): 0.947
- relative viability (NCI-H1993; first compound 0.005 µM): 0.981
- relative viability (NCI-H1993; first compound 0.01581 µM): 1.02
- relative viability (NCI-H1993; first compound 0.05 µM): 1.39
- relative viability (NCI-H1993; first compound 0.1581 µM): 0.647
- relative viability (NCI-H1993; first compound 0.5 µM): 1.13
- relative viability (NCI-H2009; first compound 0.005 µM): 0.945
- relative viability (NCI-H2009; first compound 0.01581 µM): 1.02
- relative viability (NCI-H2009; first compound 0.05 µM): 1.04
- relative viability (NCI-H2009; first compound 0.1581 µM): 1.04
- relative viability (NCI-H2009; first compound 0.5 µM): 0.732
- relative viability (NCI-H2228; first compound 0.005 µM): 0.86
- relative viability (NCI-H2228; first compound 0.01581 µM): 0.859
- relative viability (NCI-H2228; first compound 0.05 µM): 1.02
- relative viability (NCI-H2228; first compound 0.1581 µM): 0.887
- relative viability (NCI-H2228; first compound 0.5 µM): 0.972
- relative viability (NCI-H2347; first compound 0.005 µM): 0.875
- relative viability (NCI-H2347; first compound 0.01581 µM): 0.818
- relative viability (NCI-H2347; first compound 0.05 µM): 1.18
- relative viability (NCI-H2347; first compound 0.5 µM): 0.986
- relative viability (NCI-H647; first compound 0.005 µM): 0.953
- relative viability (NCI-H647; first compound 0.01581 µM): 0.886
- relative viability (NCI-H647; first compound 0.05 µM): 1.05
- relative viability (NCI-H647; first compound 0.1581 µM): 0.941
- relative viability (NCI-H647; first compound 0.5 µM): 0.957
- relative viability (NCI-H838; first compound 0.005 µM): 0.939
- relative viability (NCI-H838; first compound 0.01581 µM): 0.877
- relative viability (NCI-H838; first compound 0.05 µM): 0.924
- relative viability (NCI-H838; first compound 0.5 µM): 0.723
- relative viability (UMC-11; first compound 0.005 µM): 0.579
- relative viability (UMC-11; first compound 0.01581 µM): 0.723
- relative viability (UMC-11; first compound 0.05 µM): 0.911
- relative viability (UMC-11; first compound 0.5 µM): 0.668
